According to a melting point compilation (Tetko et al.; mined from patent text by program, amines drawn as free bases though some values may be those of a salt):

| SMILES | melting point |
| --- | --- |
| COCCCS(=O)(=O)NC(=O)CC(C)c1ccc(OCCOC)cc1Oc1ncc(C(F)(F)F)cc1Cl (stereo not given) | 107 to 109 °C |
| COc1cc2c(Nc3cccc(N(C)C)c3)c(C#N)cnc2c(OC)c1OC | 142 to 144 °C |
| N#Cc1ccc(N2CCOCC2)c(NC(N)=S)c1 | 193 to 194 °C |
| CC(N)(C(=O)O)c1ccc(NC=C2C(=O)NC(=O)c3ccc(Br)cc32)cc1 (stereo not given) | 250 to 253 °C |
| CC(=O)NCCOc1nc(-c2ccc(F)cc2C)c2ccc(=O)n(-c3c(F)cccc3F)c2n1 | 75 to 79 °C |
| O=c1ncc(Cl)cn1CCCl | 167 to 168 °C |
| Cc1cc(C(=O)c2[nH]c3cc(Cl)ccc3c2N)ccc1Cl | 142 to 143 °C |
| COC(=O)c1ccc(CSc2c(C(N)=O)sc3ccc(OC)cc23)cc1 | 150 to 152 °C |
| CCOC(=O)CCCOc1ccc([N+](=O)[O-])c(C=C2NC(=O)NC2=O)c1 | 131 to 134 °C |
| COC(=O)c1cccc(S(=O)(=O)N(C)C)c1C | 40 to 43 °C |
| COC1=C(OC)C(=O)C(CCCCCCCCCCCCCCCCCCCCO)=C(C)C1=O | 85 °C |
| CCOC(=O)N(C)C(=O)N(O)C(C)c1cc(C)sc1C (stereo not given) | 111 to 112 °C |
| CCOc1cc2c(C)c(CCN3CCN(c4ccccc4)CC3)c(=O)oc2cc1OC | 164 to 165 °C |
| C=Cc1cnc2c(NC(=O)c3c(Cl)cccc3Cl)cccc2c1CCl | 184 to 186 °C |
| CN1CCN(Cc2c(Cl)ccc(C(=O)O)c2Cl)C1=O | 221 °C |
| COc1cn(-c2ccc(OCc3ccccc3)cc2F)nc(C(C)=O)c1=O | 101 to 103 °C |
| O=C(CBr)c1ccc(Cl)c(Cl)c1Cl | 44 to 46 °C |
| N#Cc1cnc2cc(-c3cncc(CN4CCOCC4)c3)ccc2c1Nc1ccc(Oc2ccccc2)cc1 | 185 to 187 °C |
| COc1ccc(-c2[nH]nc3c2C(=O)c2c(NC(=O)C4CCCC4)cccc2-3)cc1 | 267 °C |
| CC(=O)Nc1sc([N+](=O)[O-])cc1C(=O)O | 238 to 240 °C |

| SMILES | melting point |
| --- | --- |
| CCCC[Si](C)(C)CCCSCCCNC(=O)n1cc(F)c(=O)[nH]c1=O | 71 to 72 °C |
| CCN1CCCC1CNC(=O)c1ccc(Cl)nc1Cl (stereo not given) | 73 to 74 °C |
| CC1Cc2c(cc(C(C)(C)C)c(O)c2C(C)(C)C)S1 (stereo not given) | 96.7 °C |
| CC(NC(=O)c1ccc(C2(C)C(=O)Nc3cc(Cl)cc(Cl)c3C2=O)cc1)c1ccccc1 (stereo not given) | 110 to 115 °C |
| Cc1ccc2[nH]c(=O)n(C3CCNCC3)c2c1 | > 300 °C |
| COc1nc2cc([N+](=O)[O-])c(C)c(C(=O)N[C@@H](Cc3ccccc3)C(=O)OC(C)(C)C)c2nc1OC | 86 to 88 °C |
| N#CC1=C(c2ccccc2)Nc2n[nH]cc2C1c1cccc2nsnc12 (stereo not given) | 258 °C |
| CCC(C(=O)N(CC)CC)n1ccc(-c2ccccc2)n1 (stereo not given) | 63 to 66 °C |
| C#CCOc1cc(O)ccc1-c1nc2cnccc2[nH]1 | 242 °C |
| O=C(O)Cc1c(C(=O)c2cc3ccccc3cn2)[nH]c2cc(Cl)ccc12 | 236 to 237 °C |
| O=c1ccc2c(-c3ccc(O)cc3)nccc2[nH]1 | > 300 °C |
| O=[N+]([O-])c1ccc(Cl)cc1-c1nc2ccccc2o1 | 130 to 132 °C |
| c1ccc2sc(SSN3CCOCC3)nc2c1 | 132 to 136 °C |
| O=C(O)[C@H]1C[C@H](CCc2ccccc2)Oc2ccc(F)cc21 (relative stereo) | 105 to 108 °C |
| CNC(=O)c1cc2c(Oc3ccc(OC(F)(F)F)cc3)cncc2s1 | 132 to 133 °C |
| CC(=O)c1ccc(CC(C)C)c(C#N)c1 | 71 to 72 °C |
| CCOC(=O)C1=C(C)NN=C(CC)C1c1cccc(C#N)c1 (stereo not given) | 91 °C |
| COCCc1nc2c(N)nc3ccccc3c2n1CCOCCN(C)C(=O)Nc1ccccc1 | 185 to 186 °C |
| O=C(Nc1ccc(F)cc1F)c1cccc(Oc2cccc(C(F)(F)F)c2)n1 | 110 to 112 °C |
| CC(=O)Nc1ccc(COc2cccc(C(N)=O)c2)cc1 | 198 to 199 °C |
